Experimental data published in US20240358693A1, “METHODS OF TREATING PAIN” (Aisa Pharma, Inc., priority 2023, published 2024).

Test system: participants with SSc-RP
Experiment: Average severity of weekly RP attacks (VAS 0-10 cm scale)
Format: in vivo, human
Text: The absolute change in average severity of weekly RP attacks (VAS 0-10 cm scale) from baseline to the end of each Dosing Period was and will be a secondary outcome variable. The sponsor-developed participant-informed diary will be used to record data. Average severity of weekly RP attacks is defined as the total severity scores of RP attacks divided by total number of RP attacks within the last 7 days of each dosing period. Total severity scores of RP attacks during the last 7 days of screening period divided by the total number of RP attacks will be used as baseline for the analysis of all periods. The variable will be calculated similar to frequency data as before.

[1] = Pooled Cilnidipine 20 mg and Cilnidipine 20 mg + Tadalafil 5 mg, n=4, Excluding Outliers, ITT Population - Part A
[2] = Pooled Cilnidipine 20 mg and Cilnidipine 20 mg + Tadalafil 5 mg, n=4, ITT Population - Part A
[3] = Pooled Cilnidipine 20 mg and Cilnidipine 20 mg + Tadalafil 5 mg, Excluding Outliers, ITT Population - Part A
[4] = Pooled Cilnidipine 20 mg and Cilnidipine 20 mg + Tadalafil 5 mg, Excluding Outliers, by Baseline RCS, first subgroup, ITT Population - Part A
[5] = Pooled Cilnidipine 20 mg and Cilnidipine 20 mg + Tadalafil 5 mg, Excluding Outliers, by Baseline RCS, second subgroup, ITT Population - Part A
[6] = Pooled Cilnidipine 20 mg and Cilnidipine 20 mg + Tadalafil 5 mg, ITT Population - Part A
[7] = Pooled Cilnidipine 20 mg and Cilnidipine 20 mg + Tadalafil 5 mg, first Baseline RCS subgroup block (not named), ITT Part A
[8] = Pooled Cilnidipine 20 mg and Cilnidipine 20 mg + Tadalafil 5 mg, first Baseline RCS subgroup block (not named), ITT Part A, score 0-10
[9] = Pooled Cilnidipine 20 mg and Cilnidipine 20 mg + Tadalafil 5 mg, second Baseline RCS subgroup block (not named), ITT Part A
[10] = Pooled Cilnidipine 20 mg and Cilnidipine 20 mg + Tadalafil 5 mg, second Baseline RCS subgroup block (not named), ITT Part A, score 0-10
[11] = Pooled Cilnidipine, n=3, Excluding Outliers, ITT Population - Part A
[12] = Pooled Cilnidipine, n=3, ITT Population - Part A
[13] = Pooled Cilnidipine, n=3, by Baseline RCS, first subgroup, ITT Population - Part A
[14] = Pooled Cilnidipine, first Baseline RCS subgroup block (not named), ITT Part A
[15] = Pooled Cilnidipine, first Baseline RCS subgroup block (not named), ITT Part A, score 0-10

COCCOC(=O)C1=C(C)NC(C)=C(C(=O)OC/C=C/c2ccccc2)C1c1cccc([N+](=O)[O-])c1 (stereo not shown) [Cilnidipine, cilnidipine]
Average Severity (0-10) of Weekly Symptomatic RP Attacks, Mean [1]: 3.40 | Average Severity (0-10) of Weekly Symptomatic RP Attacks, Median [1]: 3.18 | Average Severity of Weekly Symptomatic RP Attacks, Change from Baseline, Mean [1]: −1.24 | Average Severity of Weekly Symptomatic RP Attacks, Change from Baseline, Median [1]: −1.06 | Average Severity of Weekly Symptomatic RP Attacks, Percent Change from Baseline, Mean [1]: −24.75% | Average Severity of Weekly Symptomatic RP Attacks, Percent Change from Baseline, Median [1]: −19.08% | Average Severity (0-10) of Weekly Symptomatic RP Attacks, Mean [2]: 3.40 | Average Severity (0-10) of Weekly Symptomatic RP Attacks, Median [2]: 3.18 | Average Severity of Weekly Symptomatic RP Attacks, Change from Baseline, Mean [2]: −1.24 | Average Severity of Weekly Symptomatic RP Attacks, Change from Baseline, Median [2]: −1.06 | Average Severity of Weekly Symptomatic RP Attacks, Percent Change from Baseline, Mean [2]: −24.75% | Average Severity of Weekly Symptomatic RP Attacks, Percent Change from Baseline, Median [2]: −19.08% | Average Severity of Weekly RP Attacks (All Attacks), Change from Baseline, Mean [3]: −1.02 | Average Severity of Weekly RP Attacks (All Attacks), Change from Baseline, Median [3]: −0.96 | Average Severity of Weekly RP Attacks (All Attacks), Mean [3]: 3.35 | Average Severity of Weekly RP Attacks (All Attacks), Median [3]: 3.06 | Average Severity of Weekly RP Attacks (All Attacks), Percent Change from Baseline, Mean [3]: −21.83% | Average Severity of Weekly RP Attacks (All Attacks), Percent Change from Baseline, Median [3]: −16.40% | Average Severity of Weekly Symptomatic RP Attacks (Mean) [4]: 2.85 | Average Severity of Weekly Symptomatic RP Attacks (Median) [4]: 2.40 | Average Severity of Weekly Symptomatic RP Attacks, Change from Baseline, Mean [4]: −1.06 | Average Severity of Weekly Symptomatic RP Attacks, Change from Baseline, Median [4]: −0.33 | Average Severity of Weekly Symptomatic RP Attacks, Percent Change from Baseline, Mean [4]: −24.28% | Average Severity of Weekly Symptomatic RP Attacks, Percent Change from Baseline, Median [4]: −12.02% | Average Severity of Weekly Symptomatic RP Attacks (Mean) [5]: 5.06 | Average Severity of Weekly Symptomatic RP Attacks (Median) [5]: 5.06 | Average Severity of Weekly Symptomatic RP Attacks, Change from Baseline, Mean [5]: −1.79 | Average Severity of Weekly Symptomatic RP Attacks, Change from Baseline, Median [5]: −1.79 | Average Severity of Weekly Symptomatic RP Attacks, Percent Change from Baseline, Mean [5]: −26.14% | Average Severity of Weekly Symptomatic RP Attacks, Percent Change from Baseline, Median [5]: −26.14% | Average Severity of Weekly RP Attacks (All Attacks), Change from Baseline, Mean [6]: −1.02 | Average Severity of Weekly RP Attacks (All Attacks), Change from Baseline, Median [6]: −0.96 | Average Severity of Weekly RP Attacks (All Attacks), Mean [6]: 3.35 | Average Severity of Weekly RP Attacks (All Attacks), Median [6]: 3.06 | Average Severity of Weekly RP Attacks (All Attacks), Percent Change from Baseline, Mean [6]: −21.83% | Average Severity of Weekly RP Attacks (All Attacks), Percent Change from Baseline, Median [6]: −16.40% | Average Severity of Weekly RP Attacks (All Attacks), Percent Change from Baseline, Mean [7]: −21.36% | Average Severity of Weekly RP Attacks (All Attacks), Percent Change from Baseline, Median [7]: −9.57% | Average Severity of Weekly RP Attacks (All Attacks), Change from Baseline, Mean [8]: −0.84 | Average Severity of Weekly RP Attacks (All Attacks), Change from Baseline, Median [8]: −0.39 | Average Severity of Weekly RP Attacks (All Attacks), Mean [8]: 2.78 | Average Severity of Weekly RP Attacks (All Attacks), Median [8]: 2.40 | Average Severity of Weekly RP Attacks (All Attacks), Percent Change from Baseline, Mean [9]: −23.23% | Average Severity of Weekly RP Attacks (All Attacks), Percent Change from Baseline, Median [9]: −23.23% | Average Severity of Weekly RP Attacks (All Attacks), Change from Baseline, Mean [10]: −1.53 | Average Severity of Weekly RP Attacks (All Attacks), Change from Baseline, Median [10]: −1.53 | Average Severity of Weekly RP Attacks (All Attacks), Mean [10]: 5.06 | Average Severity of Weekly RP Attacks (All Attacks), Median [10]: 5.06 | Severity (Pooled Cilnidipine (n = 7)): −16% | Average Severity (0-10) of Weekly Symptomatic RP Attacks, Mean [11]: 2.79 | Average Severity (0-10) of Weekly Symptomatic RP Attacks, Median [11]: 2.40 | Average Severity of Weekly Symptomatic RP Attacks, Change from Baseline, Mean [11]: −0.87 | Average Severity of Weekly Symptomatic RP Attacks, Change from Baseline, Median [11]: −0.33 | Average Severity of Weekly Symptomatic RP Attacks, Percent Change from Baseline, Mean [11]: −19.22% | Average Severity of Weekly Symptomatic RP Attacks, Percent Change from Baseline, Median [11]: −12.02% | Average Severity (0-10) of Weekly Symptomatic RP Attacks, Mean [12]: 2.79 | Average Severity (0-10) of Weekly Symptomatic RP Attacks, Median [12]: 2.40 | Average Severity of Weekly Symptomatic RP Attacks, Change from Baseline, Mean [12]: −0.87 | Average Severity of Weekly Symptomatic RP Attacks, Change from Baseline, Median [12]: −0.33 | Average Severity of Weekly Symptomatic RP Attacks, Percent Change from Baseline, Mean [12]: −19.22% | Average Severity of Weekly Symptomatic RP Attacks, Percent Change from Baseline, Median [12]: −12.02% | Average Severity (0-10) of Weekly Symptomatic RP Attacks, Mean [13]: 2.79 | Average Severity (0-10) of Weekly Symptomatic RP Attacks, Median [13]: 2.40 | Average Severity of Weekly Symptomatic RP Attacks, Change from Baseline, Mean [13]: −0.87 | Average Severity of Weekly Symptomatic RP Attacks, Change from Baseline, Median [13]: −0.33 | Average Severity of Weekly Symptomatic RP Attacks, Percent Change from Baseline, Mean [13]: −19.22% | Average Severity of Weekly Symptomatic RP Attacks, Percent Change from Baseline, Median [13]: −12.02% | Average Severity of Weekly RP Attacks (All Attacks), Percent Change from Baseline, Mean [14]: −17.99% | Average Severity of Weekly RP Attacks (All Attacks), Percent Change from Baseline, Median [14]: −7.69% | Average Severity of Weekly RP Attacks (All Attacks), Change from Baseline, Mean [15]: −0.71 | Average Severity of Weekly RP Attacks (All Attacks), Change from Baseline, Median [15]: −0.20 | Average Severity of Weekly RP Attacks (All Attacks), Mean [15]: 2.55 | Average Severity of Weekly RP Attacks (All Attacks), Median [15]: 2.40
